Several values for one entry are separate records, joined by “and”; a condition that tells them apart may be missing. Equal entries are not always repeated. Inconclusive results and toxic doses are left out. How the source made its calls: active means survival T/C of 150% or more; inactive means T/C below 125% in these data.
System: P388 leukemia ip, CD2F1 mice, survival T/C
Test: NCI In Vivo Anticancer Drug Screen. Data for tumor model P388 Leukemia (intraperitoneal) in CD2F1 (CDF1) mice
Conditions: endpoint: median survival time, higher = longer survival
Method in brief: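 Mice carrying the transplanted tumor received test compound or vehicle. Survival was recorded in each group, and the value is the treated-group measurement divided by that of the vehicle-treated control group.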

[1] = dose: 25.0 mg/kg/injection, schedule: Q01DX009 (ip), vehicle: saline with Tween-80
[2] = dose: 50.0 mg/kg/injection, schedule: Q01DX009 (ip), vehicle: saline with Tween-80
[3] = dose: 100.0 mg/kg/injection, schedule: Q01DX009 (ip), vehicle: saline with Tween-80
[4] = dose: 25.0 mg/kg/injection, schedule: Q01DX009 (ip), vehicle: saline
[5] = dose: 50.0 mg/kg/injection, schedule: Q01DX009 (ip), vehicle: saline
[6] = dose: 100.0 mg/kg/injection, schedule: Q01DX009 (ip), vehicle: saline
[7] = dose: 50.0 mg/kg/injection, schedule: Q01DX005 (ip), vehicle: saline with Tween-80
[8] = dose: 100.0 mg/kg/injection, schedule: Q01DX005 (ip), vehicle: saline with Tween-80
[9] = dose: 200.0 mg/kg/injection, schedule: Q01DX005 (ip), vehicle: saline with Tween-80
[10] = dose: 12.5 mg/kg/injection, schedule: Q01DX009 (ip), vehicle: saline with Tween-80
[11] = dose: 50.0 mg/kg/injection, schedule: Q01DX005 (ip), vehicle: Klucel (hydroxypropylcellulose) (HPC)
[12] = dose: 100.0 mg/kg/injection, schedule: Q01DX005 (ip), vehicle: Klucel (hydroxypropylcellulose) (HPC)
[13] = dose: 200.0 mg/kg/injection, schedule: Q01DX005 (ip), vehicle: Klucel (hydroxypropylcellulose) (HPC)
[14] = dose: 200.0 mg/kg/injection, schedule: Q01DX009 (ip), vehicle: saline with Tween-80
[15] = dose: 200.0 mg/kg/injection, schedule: Q01DX009 (ip), vehicle: saline
[16] = dose: 60.0 mg/kg/injection, schedule: Q01DX005 (ip), vehicle: saline with Tween-80
[17] = dose: 120.0 mg/kg/injection, schedule: Q01DX005 (ip), vehicle: saline with Tween-80
[18] = dose: 240.0 mg/kg/injection, schedule: Q01DX005 (ip), vehicle: saline with Tween-80

Measured: T/C

C/C(=N/O)[c-]1[c-][c-][c-][c-]1.[Fe].[c-]1[c-][c-][cH-][c-]1
inactive: [1] 120 % of control | [2] 115 % of control | [3] 100 % of control

S=c1[nH]nc(-c2cnns2)o1
inactive: dose: 50.0 mg/kg/injection, schedule: Q04DX003 (ip), vehicle: Klucel (hydroxypropylcellulose) (HPC) 103 % of control | dose: 100.0 mg/kg/injection, schedule: Q04DX003 (ip), vehicle: Klucel (hydroxypropylcellulose) (HPC) 98 % of control | dose: 200.0 mg/kg/injection, schedule: Q04DX003 (ip), vehicle: Klucel (hydroxypropylcellulose) (HPC) 107 % of control

Nc1nc2ncc(CN(C(=O)CCl)c3ccc(C(=O)NC(CCC(=O)O)C(=O)O)cc3)nc2c(=O)[nH]1 (stereo not given)
inactive: dose: 50.0 mg/kg/injection, schedule: Q01DX009 (ip), vehicle: Klucel (hydroxypropylcellulose) (HPC) 95 % of control | dose: 100.0 mg/kg/injection, schedule: Q01DX009 (ip), vehicle: Klucel (hydroxypropylcellulose) (HPC) 107 % of control | dose: 200.0 mg/kg/injection, schedule: Q01DX009 (ip), vehicle: Klucel (hydroxypropylcellulose) (HPC) 108 % of control

Clc1ccccc1OCc1cnc[nH]1
inactive: [4] 102 % of control | [5] 111 % of control | [6] 117 % of control

N#CC(=N)C(C#N)=Nc1c(O)[nH]c2ccccc12
inactive: dose: 6.25 mg/kg/injection, schedule: Q01DX009 (ip), vehicle: DMSO 100 % of control | dose: 12.5 mg/kg/injection, schedule: Q01DX009 (ip), vehicle: DMSO 94 % of control | dose: 25.0 mg/kg/injection, schedule: Q01DX009 (ip), vehicle: DMSO 100 % of control | dose: 50.0 mg/kg/injection, schedule: Q01DX009 (ip), vehicle: DMSO 108 % of control

CC1=NN(c2cc(S(=O)(=O)O)ccc2Cl)C(=O)C1N=Nc1ccccc1 (stereo not given)
inactive: [5] 105 % of control | [6] 89 % of control

COc1cc2c(cc1OC)C(C)P(C)(=O)CC2=O (stereo not given)
inactive: [7] 96 % of control and 99 % of control | [8] 102 % of control and 101 % of control | [9] 102 % of control and 99 % of control

COc1cc2c(cc1OC)C(Cc1ccccc1[N+](=O)[O-])=NCC2
inactive: dose: 25.0 mg/kg/injection, schedule: Q04DX003 (ip), vehicle: saline with Tween-80 99 % of control | dose: 50.0 mg/kg/injection, schedule: Q04DX003 (ip), vehicle: saline with Tween-80 100 % of control | dose: 100.0 mg/kg/injection, schedule: Q04DX003 (ip), vehicle: saline with Tween-80 114 % of control | dose: 200.0 mg/kg/injection, schedule: Q04DX003 (ip), vehicle: saline with Tween-80 100 % of control

O=C(CN1CCOCC1)Nc1nc(-c2ccc(Cl)cc2)cs1
inactive: dose: 25.0 mg/kg/injection, schedule: Q01DX005 (ip), vehicle: DMSO 98 % of control | dose: 50.0 mg/kg/injection, schedule: Q01DX005 (ip), vehicle: DMSO 100 % of control | dose: 100.0 mg/kg/injection, schedule: Q01DX005 (ip), vehicle: DMSO 99 % of control | dose: 200.0 mg/kg/injection, schedule: Q01DX005 (ip), vehicle: DMSO 95 % of control | dose: 400.0 mg/kg/injection, schedule: Q01DX005 (ip), vehicle: DMSO 98 % of control

c1csc(C2=NCCC2)c1
inactive: [7] 100 % of control | [8] 102 % of control | [9] 102 % of control

OC(c1cc(-c2ccc(C(F)(F)F)cc2)nc(-c2ccc(C(F)(F)F)cc2)c1)C1CCCCN1 (stereo not given)
inactive: dose: 6.25 mg/kg/injection, schedule: Q01DX009 (ip), vehicle: saline with Tween-80 109 % of control | [10] 107 % of control | [1] 89 % of control

COC(=O)C1=C/N(C)CCC/C(C(N)=O)=C\1
inactive: [11] 89 % of control | [12] 102 % of control | [13] 94 % of control

C=CC(=NC(C)C)N(C)c1ccccc1
inactive: dose: 6.25 mg/kg/injection, schedule: Q01DX009 (ip), vehicle: saline 101 % of control | dose: 12.5 mg/kg/injection, schedule: Q01DX009 (ip), vehicle: saline 96 % of control | [4] 96 % of control

COc1ccc(C2=NC(c3ccccc3)N3C(c4ccccc4)NC(c4ccccc4)C2C3c2ccccc2)cc1 (stereo not given)
inactive: [10] 100 % of control | [1] 90 % of control | [2] 90 % of control and 93 % of control | [14] 91 % of control

CCON(C=Nc1ccc(Cl)c(Cl)c1)c1ccc(Cl)c(Cl)c1
inactive: [5] 103 % of control | [6] 102 % of control | [15] 91 % of control

CC(=O)N(C)C(C(=O)N1CC(C)CC1C(=O)N(C)C1C(=O)NC(CC(C)C)C(=O)N2CC(C)CC2C(=O)NC(CC(C)C)C(=O)N(C)C(C(C)C)C(=O)N2CCCC2C(=O)N(C)C(CC(C)C)C(=O)NCC(=O)OC1C)C(C)C (stereo not given)
inactive: dose: 3.12 mg/kg/injection, schedule: Q01DX009 (ip), vehicle: Klucel (hydroxypropylcellulose) (HPC) 103 % of control | dose: 6.25 mg/kg/injection, schedule: Q01DX009 (ip), vehicle: Klucel (hydroxypropylcellulose) (HPC) 97 % of control | dose: 12.5 mg/kg/injection, schedule: Q01DX009 (ip), vehicle: Klucel (hydroxypropylcellulose) (HPC) 100 % of control | dose: 18.75 mg/kg/injection, schedule: Q01DX009 (ip), vehicle: Klucel (hydroxypropylcellulose) (HPC) 93 % of control | dose: 25.0 mg/kg/injection, schedule: Q01DX009 (ip), vehicle: Klucel (hydroxypropylcellulose) (HPC) 93 % of control

CNC(=S)SCc1ccccc1
inactive: [2] 99 % of control | [3] 110 % of control

CN(C)CC/C(Br)=C1/c2ccccc2Sc2ccc(Cl)cc21
inactive: [11] 111 % of control | [12] 98 % of control | [13] 93 % of control

Cc1ccoc1OP(=O)(N(C)C)N(C)C
inactive: dose: 15.0 mg/kg/injection, schedule: Q01DX005 (ip), vehicle: saline 102 % of control | dose: 30.0 mg/kg/injection, schedule: Q01DX005 (ip), vehicle: saline 100 % of control | dose: 60.0 mg/kg/injection, schedule: Q01DX005 (ip), vehicle: saline 108 % of control

Clc1cccc(C(Nc2nncs2)Nc2nncs2)c1Cl
inactive: [16] 89 % of control | [17] 100 % of control | [18] 96 % of control

CC(=O)NCCc1nc(-c2nc(C(=O)NCCCN)cs2)cs1
inactive: dose: 12.5 mg/kg/injection, schedule: Q01DX009 (ip), vehicle: water 93 % of control | dose: 25.0 mg/kg/injection, schedule: Q01DX009 (ip), vehicle: water 98 % of control | dose: 50.0 mg/kg/injection, schedule: Q01DX009 (ip), vehicle: water 108 % of control | dose: 100.0 mg/kg/injection, schedule: Q01DX009 (ip), vehicle: water 99 % of control | dose: 200.0 mg/kg/injection, schedule: Q01DX009 (ip), vehicle: water 98 % of control

O=C1NC2C3CC(c4ccccc43)C12 (stereo not given)
inactive: [16] 105 % of control | [17] 109 % of control | [18] 108 % of control

CC(C)N1CCN(c2ccncc2S(=O)(=O)N2CCCCC2)CC1
inactive: [5] 89 % of control | [6] 96 % of control | [15] 90 % of control

CC(C)(C)OC(=O)O/N=C(\C#N)c1ccccc1
inactive: [10] 90 % of control | [1] 104 % of control | [2] 100 % of control and 103 % of control | [14] 100 % of control

Reference: PubChem BioAssay AID330 (DTP/NCI, 2004)
